Like-named read-outs stand apart in the source and are kept apart here.
Key:
Test in all cases: Kinase selectivity, P33-radiolabeled assay
Format in all cases: biochemical
Conditions in all cases: 10 μM ATP
DRAK1/STK17A = target: T1, DRAK1/STK17A (Homo sapiens, UniProt Q9UEE5)
T1 construct: purchased Reaction Biology Corp
T1 sequence (Q9UEE5 1-414): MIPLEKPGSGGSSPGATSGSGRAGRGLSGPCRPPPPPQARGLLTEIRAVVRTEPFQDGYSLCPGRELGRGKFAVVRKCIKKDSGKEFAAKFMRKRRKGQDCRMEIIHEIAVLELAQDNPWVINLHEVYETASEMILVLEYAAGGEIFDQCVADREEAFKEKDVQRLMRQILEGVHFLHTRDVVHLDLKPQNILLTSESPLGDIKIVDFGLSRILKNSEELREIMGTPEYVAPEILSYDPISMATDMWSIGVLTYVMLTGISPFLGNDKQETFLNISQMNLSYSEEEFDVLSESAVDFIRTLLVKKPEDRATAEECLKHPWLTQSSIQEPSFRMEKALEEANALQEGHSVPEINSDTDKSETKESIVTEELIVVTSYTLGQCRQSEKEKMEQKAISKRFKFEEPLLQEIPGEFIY
Procedure, shortened: (§1)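 Duplicate single-concentration testing used 10 μM compound. The ATP concentration was also 10 μM.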

EPHA6 = target: T2, EPHA6 (Homo sapiens, UniProt Q9UF33)
T2 construct: purchased Reaction Biology Corp
T2 sequence (Q9UF33 23-1036): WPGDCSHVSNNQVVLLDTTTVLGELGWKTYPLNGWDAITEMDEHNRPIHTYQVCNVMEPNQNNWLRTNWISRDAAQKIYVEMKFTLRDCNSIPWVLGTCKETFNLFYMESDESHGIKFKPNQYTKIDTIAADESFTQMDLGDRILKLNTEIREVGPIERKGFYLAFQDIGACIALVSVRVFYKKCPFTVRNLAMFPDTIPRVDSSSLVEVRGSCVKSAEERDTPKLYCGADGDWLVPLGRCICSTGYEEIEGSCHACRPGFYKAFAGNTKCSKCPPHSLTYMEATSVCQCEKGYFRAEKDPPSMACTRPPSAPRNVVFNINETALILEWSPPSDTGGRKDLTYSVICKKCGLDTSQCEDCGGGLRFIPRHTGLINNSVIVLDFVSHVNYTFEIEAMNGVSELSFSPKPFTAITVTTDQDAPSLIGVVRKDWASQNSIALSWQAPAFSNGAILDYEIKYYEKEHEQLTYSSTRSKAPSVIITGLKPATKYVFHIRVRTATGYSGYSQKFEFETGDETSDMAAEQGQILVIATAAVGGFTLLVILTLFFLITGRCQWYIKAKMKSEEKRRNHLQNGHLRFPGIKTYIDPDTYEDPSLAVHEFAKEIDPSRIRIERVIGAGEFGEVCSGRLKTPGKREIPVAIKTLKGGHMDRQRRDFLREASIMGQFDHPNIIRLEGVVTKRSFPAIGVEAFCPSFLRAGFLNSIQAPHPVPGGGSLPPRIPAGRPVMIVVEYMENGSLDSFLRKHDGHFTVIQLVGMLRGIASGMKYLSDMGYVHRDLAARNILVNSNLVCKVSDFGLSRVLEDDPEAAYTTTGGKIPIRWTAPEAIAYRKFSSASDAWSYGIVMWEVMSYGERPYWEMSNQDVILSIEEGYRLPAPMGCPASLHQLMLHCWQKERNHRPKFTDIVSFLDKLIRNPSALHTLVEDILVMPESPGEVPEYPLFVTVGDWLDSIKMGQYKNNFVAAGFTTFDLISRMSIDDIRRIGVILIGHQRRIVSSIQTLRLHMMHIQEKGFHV
Procedure, shortened: as §1

ERK1 = target: T3, ERK1 (Homo sapiens, UniProt P27361)
T3 construct: purchased Reaction Biology Corp
Procedure, shortened: as §1

MARK1 = target: T4, MARK1 (Homo sapiens, UniProt Q9P0L2)
T4 construct: purchased Reaction Biology Corp
Procedure, shortened: as §1

MRCKa/CDC42BPA = target: T5, MRCKa/CDC42BPA (Homo sapiens, UniProt Q5VT25)
T5 construct: purchased Reaction Biology Corp
Procedure, shortened: as §1

PIM3 = target: T6, PIM3 (Homo sapiens, UniProt Q86V86)
T6 construct: purchased Reaction Biology Corp
Procedure, shortened: as §1

PKCd = target: T7, PKCd (Homo sapiens, UniProt Q05655)
T7 construct: purchased Reaction Biology Corp
Procedure, shortened: as §1

PLK3 = target: T8, PLK3 (Homo sapiens, UniProt Q9H4B4)
T8 construct: purchased Reaction Biology Corp
Procedure, shortened: as §1

PYK2 = target: T9, PYK2 (Homo sapiens, UniProt Q14289)
T9 construct: purchased Reaction Biology Corp
Procedure, shortened: as §1

ROCK2 = target: T10, ROCK2 (Homo sapiens, UniProt O75116)
T10 construct: purchased Reaction Biology Corp
Procedure, shortened: as §1

TAK1 = target: T11, TAK1 (Homo sapiens, UniProt O43318)
T11 construct: purchased Reaction Biology Corp
T11 sequence (O43318 1-303 limits assumed): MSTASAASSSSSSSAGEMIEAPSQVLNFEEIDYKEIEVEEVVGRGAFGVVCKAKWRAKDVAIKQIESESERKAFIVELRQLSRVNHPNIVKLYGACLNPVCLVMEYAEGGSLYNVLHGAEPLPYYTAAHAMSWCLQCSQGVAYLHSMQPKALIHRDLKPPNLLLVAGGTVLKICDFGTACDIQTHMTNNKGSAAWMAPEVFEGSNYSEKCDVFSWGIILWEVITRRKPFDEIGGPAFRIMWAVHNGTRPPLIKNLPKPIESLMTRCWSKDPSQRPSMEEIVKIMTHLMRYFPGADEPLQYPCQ
T11 sequence (Q15750 437-504 partner limits assumed): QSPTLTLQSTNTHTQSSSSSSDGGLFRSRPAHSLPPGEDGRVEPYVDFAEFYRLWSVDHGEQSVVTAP
Procedure, shortened: as §1

[1] = read-out: % Enzyme Activity (relative to DMSO controls) AVG
[2] = read-out: % Enzyme Activity (relative to DMSO controls) Data 1
[3] = read-out: % Enzyme Activity (relative to DMSO controls) Data 2

T10 sequence (O75116 whole entry): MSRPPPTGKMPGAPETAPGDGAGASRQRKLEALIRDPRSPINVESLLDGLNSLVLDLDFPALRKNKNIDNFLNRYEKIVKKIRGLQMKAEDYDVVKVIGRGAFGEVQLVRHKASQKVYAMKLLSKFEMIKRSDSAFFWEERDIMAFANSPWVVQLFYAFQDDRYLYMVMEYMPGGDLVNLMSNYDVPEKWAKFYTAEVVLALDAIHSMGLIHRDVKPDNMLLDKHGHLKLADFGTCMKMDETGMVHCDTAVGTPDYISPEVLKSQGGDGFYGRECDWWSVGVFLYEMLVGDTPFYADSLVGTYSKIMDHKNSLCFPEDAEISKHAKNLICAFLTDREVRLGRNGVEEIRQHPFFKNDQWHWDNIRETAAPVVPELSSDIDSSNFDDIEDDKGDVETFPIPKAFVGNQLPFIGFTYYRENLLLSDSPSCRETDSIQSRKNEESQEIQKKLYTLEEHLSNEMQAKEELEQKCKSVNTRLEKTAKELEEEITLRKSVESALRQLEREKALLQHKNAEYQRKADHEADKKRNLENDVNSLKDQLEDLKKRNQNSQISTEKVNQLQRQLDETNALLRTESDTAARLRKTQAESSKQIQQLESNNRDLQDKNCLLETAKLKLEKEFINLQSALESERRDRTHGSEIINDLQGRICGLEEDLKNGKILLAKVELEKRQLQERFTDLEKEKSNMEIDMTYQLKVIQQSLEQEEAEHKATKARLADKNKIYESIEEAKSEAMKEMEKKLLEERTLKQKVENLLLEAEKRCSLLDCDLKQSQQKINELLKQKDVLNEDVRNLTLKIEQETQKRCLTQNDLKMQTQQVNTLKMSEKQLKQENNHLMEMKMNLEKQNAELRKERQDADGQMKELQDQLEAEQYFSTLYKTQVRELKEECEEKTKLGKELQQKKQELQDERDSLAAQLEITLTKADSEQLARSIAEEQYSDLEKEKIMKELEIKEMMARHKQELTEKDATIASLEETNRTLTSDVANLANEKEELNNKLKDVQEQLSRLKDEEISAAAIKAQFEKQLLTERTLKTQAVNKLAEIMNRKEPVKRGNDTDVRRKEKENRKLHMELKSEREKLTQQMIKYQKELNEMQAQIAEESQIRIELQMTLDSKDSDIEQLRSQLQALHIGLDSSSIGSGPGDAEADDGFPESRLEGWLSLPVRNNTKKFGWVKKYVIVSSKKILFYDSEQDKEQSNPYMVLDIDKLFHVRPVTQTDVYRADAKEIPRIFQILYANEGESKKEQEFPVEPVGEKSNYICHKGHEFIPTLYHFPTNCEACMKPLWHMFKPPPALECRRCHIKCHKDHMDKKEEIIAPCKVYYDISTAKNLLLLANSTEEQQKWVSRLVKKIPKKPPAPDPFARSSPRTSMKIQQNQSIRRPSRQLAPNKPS
T8 sequence (Q9H4B4 whole entry): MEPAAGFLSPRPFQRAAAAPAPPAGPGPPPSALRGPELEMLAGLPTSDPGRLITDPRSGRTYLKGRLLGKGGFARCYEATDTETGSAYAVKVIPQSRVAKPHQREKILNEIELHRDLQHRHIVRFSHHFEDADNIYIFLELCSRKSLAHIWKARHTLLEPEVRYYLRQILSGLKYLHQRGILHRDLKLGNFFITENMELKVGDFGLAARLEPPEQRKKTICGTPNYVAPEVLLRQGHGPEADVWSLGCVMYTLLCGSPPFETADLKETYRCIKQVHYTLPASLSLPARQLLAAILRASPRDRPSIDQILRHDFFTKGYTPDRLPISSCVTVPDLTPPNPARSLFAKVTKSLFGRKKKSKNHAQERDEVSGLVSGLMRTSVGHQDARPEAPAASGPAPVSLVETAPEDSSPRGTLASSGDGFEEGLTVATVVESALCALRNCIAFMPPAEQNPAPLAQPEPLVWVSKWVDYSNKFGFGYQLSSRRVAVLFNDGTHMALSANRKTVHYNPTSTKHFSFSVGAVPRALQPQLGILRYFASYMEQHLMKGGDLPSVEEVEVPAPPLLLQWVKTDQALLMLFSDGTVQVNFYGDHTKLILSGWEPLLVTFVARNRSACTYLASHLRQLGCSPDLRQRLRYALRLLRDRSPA
T7 sequence (Q05655 whole entry): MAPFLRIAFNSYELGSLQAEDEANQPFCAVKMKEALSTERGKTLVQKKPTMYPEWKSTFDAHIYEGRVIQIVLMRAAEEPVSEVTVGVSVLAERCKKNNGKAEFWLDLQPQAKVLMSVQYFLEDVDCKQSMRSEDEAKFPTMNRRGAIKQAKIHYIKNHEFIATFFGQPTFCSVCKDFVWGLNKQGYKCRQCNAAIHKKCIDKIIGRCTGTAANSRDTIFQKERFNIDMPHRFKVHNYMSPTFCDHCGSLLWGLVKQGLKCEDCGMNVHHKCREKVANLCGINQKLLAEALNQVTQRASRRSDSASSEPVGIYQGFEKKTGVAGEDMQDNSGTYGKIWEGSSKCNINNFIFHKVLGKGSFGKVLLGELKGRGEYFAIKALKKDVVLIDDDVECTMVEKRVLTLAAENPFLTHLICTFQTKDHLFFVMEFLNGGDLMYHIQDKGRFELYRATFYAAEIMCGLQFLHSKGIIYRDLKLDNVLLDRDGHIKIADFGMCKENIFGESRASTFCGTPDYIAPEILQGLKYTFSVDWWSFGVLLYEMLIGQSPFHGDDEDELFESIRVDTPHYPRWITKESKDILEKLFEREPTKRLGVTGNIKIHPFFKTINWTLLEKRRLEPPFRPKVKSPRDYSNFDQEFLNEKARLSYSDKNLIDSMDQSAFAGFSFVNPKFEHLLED
T5 sequence (Q5VT25 whole entry): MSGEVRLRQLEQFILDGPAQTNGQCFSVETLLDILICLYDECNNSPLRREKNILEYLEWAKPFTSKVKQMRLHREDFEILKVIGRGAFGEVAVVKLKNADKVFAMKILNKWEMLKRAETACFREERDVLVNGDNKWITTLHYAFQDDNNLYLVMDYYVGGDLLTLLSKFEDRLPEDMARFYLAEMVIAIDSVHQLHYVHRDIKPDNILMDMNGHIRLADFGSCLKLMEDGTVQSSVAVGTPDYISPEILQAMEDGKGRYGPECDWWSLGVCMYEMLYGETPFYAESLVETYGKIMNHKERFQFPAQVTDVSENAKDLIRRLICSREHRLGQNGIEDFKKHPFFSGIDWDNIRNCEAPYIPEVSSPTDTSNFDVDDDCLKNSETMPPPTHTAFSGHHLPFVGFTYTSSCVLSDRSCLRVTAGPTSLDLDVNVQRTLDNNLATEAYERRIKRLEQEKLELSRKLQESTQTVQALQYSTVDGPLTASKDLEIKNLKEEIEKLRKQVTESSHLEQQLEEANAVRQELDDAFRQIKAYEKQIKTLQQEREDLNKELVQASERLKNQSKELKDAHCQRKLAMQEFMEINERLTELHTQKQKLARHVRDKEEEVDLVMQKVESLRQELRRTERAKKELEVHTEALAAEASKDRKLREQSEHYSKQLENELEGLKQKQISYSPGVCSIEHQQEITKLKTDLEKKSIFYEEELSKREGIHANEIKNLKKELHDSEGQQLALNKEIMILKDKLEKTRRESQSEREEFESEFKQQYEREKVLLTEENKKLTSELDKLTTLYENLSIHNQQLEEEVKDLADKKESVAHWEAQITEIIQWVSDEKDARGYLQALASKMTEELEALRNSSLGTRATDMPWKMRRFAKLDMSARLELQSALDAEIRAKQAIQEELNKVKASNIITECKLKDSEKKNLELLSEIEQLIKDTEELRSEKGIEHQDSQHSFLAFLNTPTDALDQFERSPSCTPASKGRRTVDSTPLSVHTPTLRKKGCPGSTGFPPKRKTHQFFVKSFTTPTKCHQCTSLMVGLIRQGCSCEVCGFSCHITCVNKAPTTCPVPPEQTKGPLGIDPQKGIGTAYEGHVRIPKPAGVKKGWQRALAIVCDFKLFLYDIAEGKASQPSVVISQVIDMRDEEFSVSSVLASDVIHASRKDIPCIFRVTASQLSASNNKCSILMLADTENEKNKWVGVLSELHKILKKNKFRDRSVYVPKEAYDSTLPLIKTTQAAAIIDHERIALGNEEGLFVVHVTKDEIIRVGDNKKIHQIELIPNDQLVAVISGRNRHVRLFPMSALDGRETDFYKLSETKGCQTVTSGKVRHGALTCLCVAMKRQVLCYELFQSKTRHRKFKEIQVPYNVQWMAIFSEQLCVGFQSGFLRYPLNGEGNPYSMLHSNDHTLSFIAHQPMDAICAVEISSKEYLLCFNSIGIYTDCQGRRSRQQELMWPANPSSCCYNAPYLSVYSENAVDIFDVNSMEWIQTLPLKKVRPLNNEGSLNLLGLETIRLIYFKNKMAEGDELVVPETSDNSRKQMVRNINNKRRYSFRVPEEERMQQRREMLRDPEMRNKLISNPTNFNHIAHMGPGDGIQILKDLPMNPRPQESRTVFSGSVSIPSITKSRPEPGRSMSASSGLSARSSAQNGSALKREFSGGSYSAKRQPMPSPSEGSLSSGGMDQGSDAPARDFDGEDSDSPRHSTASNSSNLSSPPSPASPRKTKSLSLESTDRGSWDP

CC(C)(C)C(=O)N1N=CC[C@H]1c1ccccc1 [GSK′963]
remaining activity at 10 µM (DRAK1/STK17A; [1]): 99.7%
remaining activity at 10 µM (DRAK1/STK17A; [2]): 98.1%
remaining activity at 10 µM (DRAK1/STK17A; [3]): 101%
remaining activity at 10 µM (EPHA6; [1]): 99.3%
remaining activity at 10 µM (EPHA6; [2]): 101%
remaining activity at 10 µM (EPHA6; [3]): 97.5%
remaining activity at 10 µM (ERK1; [1]): 102%
remaining activity at 10 µM (ERK1; [2]): 98.8%
remaining activity at 10 µM (ERK1; [3]): 104%
remaining activity at 10 µM (MARK1; [1]): 105%
remaining activity at 10 µM (MARK1; [2]): 105%
remaining activity at 10 µM (MARK1; [3]): 105%
remaining activity at 10 µM (MRCKa/CDC42BPA; [1]): 111%
remaining activity at 10 µM (MRCKa/CDC42BPA; [2]): 110%
remaining activity at 10 µM (MRCKa/CDC42BPA; [3]): 112%
remaining activity at 10 µM (PIM3; [1]): 116%
remaining activity at 10 µM (PIM3; [2]): 119%
remaining activity at 10 µM (PIM3; [3]): 113%
remaining activity at 10 µM (PKCd; [1]): 106%
remaining activity at 10 µM (PKCd; [2]): 106%
remaining activity at 10 µM (PKCd; [3]): 107%
remaining activity at 10 µM (PLK3; [1]): 92.5%
remaining activity at 10 µM (PLK3; [2]): 95.5%
remaining activity at 10 µM (PLK3; [3]): 89.5%
remaining activity at 10 µM (PYK2; [1]): 103%
remaining activity at 10 µM (PYK2; [2]): 103%
remaining activity at 10 µM (PYK2; [3]): 103%
remaining activity at 10 µM (ROCK2; [1]): 98%
remaining activity at 10 µM (ROCK2; [2]): 99%
remaining activity at 10 µM (ROCK2; [3]): 97.1%
remaining activity at 10 µM (TAK1; [1]): 98.8%
remaining activity at 10 µM (TAK1; [2]): 99.7%
remaining activity at 10 µM (TAK1; [3]): 97.9%
